Reference: ChEMBL document CHEMBL2346622, “Novel tacrine-related drugs as potential candidates for the treatment of Alzheimer's disease” (Bioorg Med Chem Lett, 2013)
pIC50: −log10 of the molar value.

Assays:
[1] = target: T1, Acetylcholinesterase (Rattus norvegicus) (UniProt P37136); experiment: (§1) Inhibition of rat brain acetylcholinesterase
T1 sequence (whole entry): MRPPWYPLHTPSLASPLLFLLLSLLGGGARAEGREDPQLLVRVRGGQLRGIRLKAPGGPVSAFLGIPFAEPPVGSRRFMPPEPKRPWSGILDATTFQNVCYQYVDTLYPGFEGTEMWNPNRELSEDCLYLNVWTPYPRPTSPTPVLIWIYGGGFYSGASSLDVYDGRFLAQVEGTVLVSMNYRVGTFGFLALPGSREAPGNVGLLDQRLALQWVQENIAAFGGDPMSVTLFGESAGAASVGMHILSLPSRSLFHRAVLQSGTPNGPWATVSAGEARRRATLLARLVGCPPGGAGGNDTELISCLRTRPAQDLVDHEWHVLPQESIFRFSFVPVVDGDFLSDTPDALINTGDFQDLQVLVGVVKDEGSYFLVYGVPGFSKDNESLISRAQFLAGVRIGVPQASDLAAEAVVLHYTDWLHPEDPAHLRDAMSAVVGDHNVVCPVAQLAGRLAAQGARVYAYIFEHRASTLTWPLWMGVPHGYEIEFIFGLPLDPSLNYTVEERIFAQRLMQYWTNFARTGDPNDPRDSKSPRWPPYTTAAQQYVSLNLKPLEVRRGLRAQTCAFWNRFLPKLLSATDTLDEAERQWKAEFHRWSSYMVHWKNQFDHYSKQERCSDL

Acetylcholinesterase = target: T2, Acetylcholinesterase (Rattus norvegicus, UniProt P37136); experiment: as §1
T2 sequence (P37136 whole entry): T1 sequence (whole entry)

Question: What does the source list for c1ccc2c(NCCCCCCCN3CCCCC3)c3c(nc2c1)CCCC3?
Answer: Imax [1]: 95%; pIC50 (Acetylcholinesterase): 7.69
